Like-named read-outs stand apart in the source and are kept apart here.
How the values were obtained:
[1] = target: T1, fatty acid amide hydrolase (r-FAAH) (Rattus norvegicus, UniProt P97612)
[2] = target: T1, fatty acid amide hydrolase (r-FAAH); assay: biochemical

T1 sequence (P97612 whole entry): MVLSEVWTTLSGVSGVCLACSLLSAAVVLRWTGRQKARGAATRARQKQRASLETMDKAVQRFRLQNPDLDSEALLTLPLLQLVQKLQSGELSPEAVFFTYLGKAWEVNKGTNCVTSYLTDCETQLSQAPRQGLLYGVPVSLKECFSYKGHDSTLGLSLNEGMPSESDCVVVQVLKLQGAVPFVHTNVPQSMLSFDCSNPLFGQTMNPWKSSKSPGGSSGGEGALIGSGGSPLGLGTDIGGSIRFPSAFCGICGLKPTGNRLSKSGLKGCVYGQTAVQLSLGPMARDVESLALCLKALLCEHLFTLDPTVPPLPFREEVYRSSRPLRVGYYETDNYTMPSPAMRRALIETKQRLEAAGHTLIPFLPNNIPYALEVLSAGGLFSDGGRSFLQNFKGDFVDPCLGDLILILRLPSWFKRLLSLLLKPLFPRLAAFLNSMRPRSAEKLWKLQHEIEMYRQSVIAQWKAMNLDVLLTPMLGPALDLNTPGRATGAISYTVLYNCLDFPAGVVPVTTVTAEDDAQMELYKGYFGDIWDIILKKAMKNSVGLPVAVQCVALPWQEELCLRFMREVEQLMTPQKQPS

Compound	IC50 [1] [nM]	IC50 [2] [nM]
CNC(=O)c1cccc(-c2cc(OC(=O)NC3CCCCC3)ccc2F)c1 [ARN14633, [4-fluoro-3-[3-(methylcarbamoyl)phenyl]phenyl] N-cyclohexylcarbamate]	1.4 ± 0.3	
NC(=O)c1cccc(-c2cc(OC(=O)NC3CCCCC3)ccc2OC(F)F)c1 [ARN14280, [3-(3-carbamoylphenyl)-4-(difluoromethoxy)phenyl] N-cyclohexylcarbamate]		1.5 ± 0.3
